Tested on: 349418-098-R-PDC complex spheroid viability
Experiment: Anticancer human tumor 349418-098-R-PDC patient-derived lung adenocarcinoma cell line growth inhibition
Details: for IC50: curve of first compound; for viability, T/C: stronger effect = lower value
Excerpt: Multicellular complex tumor spheroid response to LSD1 Inhibitor Iadademstat in combination with a variety of drugs and investigational agents in selected tumor cell lines
The current study was undertaken to assess response to LSD1 inhibitors in combination with standard-of-care drugs and investigational agents in solid tumor complex spheroid models as well as in the K-562 leukemia. Complex spheroids include a stromal component modeled by human endothelial cells (HUVEC) and fibroblasts modeled by human mesenchymal stem cells (MSCs). The concentration ranges selected for each drug and investigational agent were based upon clinically achievable concentrations if the clinical Cmax of the agent was known.
Compounds. The drugs and investigational agents used in this study are listed on Table 1. All of the agents used, including staurosporine (NSC755774) and gemcitabine (NSC613327), were obtained from the Developmental Therapeutics Program, NCI. FDA-approved anticancer drugs are available from the NCI at http://dtp.nci.nih.gov/branches/dscb/oncology_drugset_explanation.html. Drugs and investigational agents were >95% pure by proton nuclear magnetic resonance (NMR) and liquid chromatography/mass spectrometry (LC/MS). Stock solutions were prepared at 400x in DMSO, stored at -70 degrees C, and diluted in fresh medium prior to their use. The final concentration of DMSO in cell culture wells never exceeded 0.25% (v/v). The FDA-approved anticancer drug set is available from the Developmental Therapeutics Program at https://dtp.cancer.gov/organization/dscb/obtaining/available_plates.htm. All drugs and investigational agents were tested over a range starting from a high concentration at or near the clinical Cmax and decreasing in half-log increments. If the clinical Cmax for an agent had not been determined, the highest concentration tested was 10 microM.
Cell Lines. The patient-derived cancer cell (PDC) lines: 292921-168-R-J2-PDC, K24384-001-R-PDC, and 521955-158-R2-J5-PDC pancreatic carcinomas, 556581-035-R-J1 ovarian carcinoma, 324938-238-R-J1-PDC, 855422-203-R-J1-PDC and 883617-216-R-J1-PDC urothelial bladder carcinomas, 743489-274-T-PDC renal cell carcinoma, 138582-R-J1 Merkel cell tumor, K60290-347-R-J1 and K57222-313-R-J1-PDC glioblastomas, 653999-131-R-J2-PDC, LG0703-F948-PDC, and 349418-098-R-PDC non-small cell lung carcinomas, 885512-296-R-J2-PDC, 171881-019-R-J1-PDC breast carcinomas and 186277-243-T-J2-PDC and 233499-124-R-J2-PDC colon carcinomas were obtained from the NCI Patient-Derived Models Repository (PDMR, https://pdmr.cancer.gov). The established cell lines NCI/ADR-RES (RRID:CVCL_14520 and OVCAR-5 (RRID:CVCL_1628) ovarian carcinomas, 786-O (RRID:CVCL_1051) and A498 (RRID:CVCL_A498) renal cell carcinoma, NCI-H211 (ATCC, cat. CRL-5824; RRID:CVCL_1529), NCI-H196 (ATCC, cat. CRL-5823, RRID:CVCL_1509), SW 1271 (ATCC, cat. CRL-2177, RRID:CVCL_1716) and NCI-H1876 (ATCC, cat. CRL-5902, RRID:CVCL_1503) small cell lung carcinomas, MDA-MB-231 (RRID:CVCL_0062) and MDA-MB-468 (RRID:CVCL_0419)breast carcinomas (10-12). Pooled donor human umbilical vein endothelial cells (HUVEC, Lonza, cat. CC-2519) and human mesenchymal stem cells (hMSC, Lonza, cat. PT-2501) were purchased from Lonza (Walkersville, MD).
Cell Culture. All cells were maintained in an incubator at 37 degrees C and 5% CO2 with 95% humidity. The PDC lines were cultured according to standard operating procedures established by the NCI PDMR (https://pdmr.cancer.gov). Briefly all PDCs were thawed and cultured in Matrigel-coated flasks prepared with a working solution of 1X Ham's F-12 nutrient mix, without supplementation (Invitrogen, Waltham, MA, cat. 11765054), 100 U/mL penicillin-streptomycin (Invitrogen, cat. 15140122), and 2.5% Matrigel (Corning Inc., Corning, NY, cat. 354248) for the first three passages. […]

[1] = second compound 0.1 µM, first compound 0.000949 µM
[2] = second compound 0.1 µM, first compound 0.003 µM
[3] = second compound 0.1 µM, first compound 0.00949 µM
[4] = second compound 0.1 µM, first compound 0.03 µM
[5] = second compound 0.1 µM, first compound 0.0949 µM
[6] = second compound 0.1 µM, first compound 0.3 µM
[7] = second compound 0.316 µM, first compound 0.000949 µM
[8] = second compound 0.316 µM, first compound 0.003 µM
[9] = second compound 0.316 µM, first compound 0.00949 µM
[10] = second compound 0.316 µM, first compound 0.03 µM
[11] = second compound 0.316 µM, first compound 0.0949 µM
[12] = second compound 0.316 µM, first compound 0.3 µM
[13] = second compound 1 µM, first compound 0.000949 µM
[14] = second compound 1 µM, first compound 0.003 µM
[15] = second compound 1 µM, first compound 0.00949 µM
[16] = second compound 1 µM, first compound 0.03 µM
[17] = second compound 1 µM, first compound 0.0949 µM
[18] = second compound 1 µM, first compound 0.3 µM
[19] = second compound 3.16 µM, first compound 0.000949 µM
[20] = second compound 3.16 µM, first compound 0.003 µM
[21] = second compound 3.16 µM, first compound 0.00949 µM
[22] = second compound 3.16 µM, first compound 0.03 µM
[23] = second compound 3.16 µM, first compound 0.0949 µM
[24] = second compound 3.16 µM, first compound 0.3 µM
[25] = second compound 10 µM, first compound 0.000949 µM
[26] = second compound 10 µM, first compound 0.003 µM
[27] = second compound 10 µM, first compound 0.00949 µM
[28] = second compound 10 µM, first compound 0.03 µM
[29] = second compound 10 µM, first compound 0.0949 µM
[30] = second compound 10 µM, first compound 0.3 µM
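Also: spheroids exposed to agents for seven days before readout.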
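For viability, T/C in this document: 100% = DMSO vehicle control wells.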

CCc1c2c(nc3ccc(O)cc13)-c1cc3c(c(=O)n1C2)COC(=O)[C@]3(O)CC + NC1CC1c1ccc(-c2cccc(O)c2)cc1
IC50 (second compound 0.1 µM): < 0.949 nM | IC50 (second compound 0.316 µM): < 0.949 nM | IC50 (second compound 1 µM): < 0.949 nM | IC50 (second compound 3.16 µM): < 0.949 nM | IC50 (second compound 10 µM): < 0.949 nM | viability, T/C [1]: 3.35% | viability, T/C [2]: 2.46% | viability, T/C [3]: 1.32% | viability, T/C [4]: 1.41% | viability, T/C [5]: 1.92% | viability, T/C [6]: 1.96% | viability, T/C [7]: 3.19% | viability, T/C [8]: 2.09% | viability, T/C [9]: 1.26% | viability, T/C [10]: 1.31% | viability, T/C [11]: 1.59% | viability, T/C [12]: 1.98% | viability, T/C [13]: 3.23% | viability, T/C [14]: 2.09% | viability, T/C [15]: 1.23% | viability, T/C [16]: 1.48% | viability, T/C [17]: 1.67% | viability, T/C [18]: 1.92% | viability, T/C [19]: 3.45% | viability, T/C [20]: 2.17% | viability, T/C [21]: 1.37% | viability, T/C [22]: 1.52% | viability, T/C [23]: 1.8% | viability, T/C [24]: 1.56% | viability, T/C [25]: 3.42% | viability, T/C [26]: 1.99% | viability, T/C [27]: 1.52% | viability, T/C [28]: 1.31% | viability, T/C [29]: 1.59% | viability, T/C [30]: 1.47%

Nc1ncn(C2CC(O)C(CO)S2)c(=O)n1 (stereo not given) + NC1CCC(NC2CC2c2ccccc2)CC1
IC50 (second compound 0.1 µM): 18.5 nM | IC50 (second compound 0.316 µM): 19.2 nM | IC50 (second compound 1 µM): 20.3 nM | IC50 (second compound 3.16 µM): 19.2 nM | IC50 (second compound 10 µM): 12.4 nM | viability, T/C [1]: 107% | viability, T/C [2]: 85.5% | viability, T/C [3]: 71.7% | viability, T/C [4]: 34.7% | viability, T/C [5]: 19.6% | viability, T/C [6]: 8.78% | viability, T/C [7]: 104% | viability, T/C [8]: 100% | viability, T/C [9]: 71.6% | viability, T/C [10]: 35.9% | viability, T/C [11]: 16.1% | viability, T/C [12]: 9.32% | viability, T/C [13]: 117% | viability, T/C [14]: 96.2% | viability, T/C [15]: 74.3% | viability, T/C [16]: 38.1% | viability, T/C [17]: 16.1% | viability, T/C [18]: 8.39% | viability, T/C [19]: 97.5% | viability, T/C [20]: 89.8% | viability, T/C [21]: 73.4% | viability, T/C [22]: 34.8% | viability, T/C [23]: 15.6% | viability, T/C [24]: 7.02% | viability, T/C [25]: 75.8% | viability, T/C [26]: 86% | viability, T/C [27]: 51.1% | viability, T/C [28]: 30.3% | viability, T/C [29]: 16% | viability, T/C [30]: 7.62%

Nc1ncn(C2CC(O)C(CO)S2)c(=O)n1 (stereo not given) + NC1CC1c1ccc(-c2cccc(O)c2)cc1
IC50 (second compound 0.1 µM): 25 nM | IC50 (second compound 0.316 µM): 23.9 nM | IC50 (second compound 1 µM): 27.9 nM | IC50 (second compound 3.16 µM): 27.1 nM | IC50 (second compound 10 µM): 19.5 nM | viability, T/C [1]: 113% | viability, T/C [2]: 112% | viability, T/C [3]: 87.1% | viability, T/C [4]: 42.6% | viability, T/C [5]: 15.4% | viability, T/C [6]: 5.99% | viability, T/C [7]: 112% | viability, T/C [8]: 106% | viability, T/C [9]: 93% | viability, T/C [10]: 39% | viability, T/C [11]: 12.2% | viability, T/C [12]: 6.04% | viability, T/C [13]: 117% | viability, T/C [14]: 107% | viability, T/C [15]: 96.8% | viability, T/C [16]: 46.3% | viability, T/C [17]: 13.5% | viability, T/C [18]: 5.81% | viability, T/C [19]: 115% | viability, T/C [20]: 115% | viability, T/C [21]: 96.3% | viability, T/C [22]: 44.6% | viability, T/C [23]: 17.3% | viability, T/C [24]: 6.89% | viability, T/C [25]: 87.2% | viability, T/C [26]: 81.6% | viability, T/C [27]: 75.4% | viability, T/C [28]: 34.5% | viability, T/C [29]: 14.5% | viability, T/C [30]: 5.54%

CC1COCCN1c1cc(C2(S(C)(=N)=O)CC2)nc(-c2ccnc3[nH]ccc23)n1 (stereo not given) + NC1CC1c1ccc(-c2cccc(O)c2)cc1
IC50 (second compound 0.1 µM): 1050 nM | IC50 (second compound 0.316 µM): 1020 nM | IC50 (second compound 1 µM): 931 nM | IC50 (second compound 3.16 µM): 1070 nM | IC50 (second compound 10 µM): 709 nM | viability, T/C (second compound 0.1 µM, first compound 0.0316 µM): 114% | viability, T/C (second compound 0.1 µM, first compound 0.1 µM): 113% | viability, T/C (second compound 0.1 µM, first compound 0.316 µM): 111% | viability, T/C (second compound 0.1 µM, first compound 1 µM): 51.8% | viability, T/C (second compound 0.1 µM, first compound 3.16 µM): 11.8% | viability, T/C (second compound 0.1 µM, first compound 10 µM): 10.9% | viability, T/C (second compound 0.316 µM, first compound 0.0316 µM): 120% | viability, T/C (second compound 0.316 µM, first compound 0.1 µM): 111% | viability, T/C (second compound 0.316 µM, first compound 0.316 µM): 104% | viability, T/C (second compound 0.316 µM, first compound 1 µM): 51.2% | viability, T/C (second compound 0.316 µM, first compound 3.16 µM): 11.5% | viability, T/C (second compound 0.316 µM, first compound 10 µM): 9.93% | viability, T/C (second compound 1 µM, first compound 0.0316 µM): 115% | viability, T/C (second compound 1 µM, first compound 0.1 µM): 116% | viability, T/C (second compound 1 µM, first compound 0.316 µM): 115% | viability, T/C (second compound 1 µM, first compound 1 µM): 45.6% | viability, T/C (second compound 1 µM, first compound 3.16 µM): 13.9% | viability, T/C (second compound 1 µM, first compound 10 µM): 10.7% | viability, T/C (second compound 3.16 µM, first compound 0.0316 µM): 118% | viability, T/C (second compound 3.16 µM, first compound 0.1 µM): 103% | viability, T/C (second compound 3.16 µM, first compound 0.316 µM): 115% | viability, T/C (second compound 3.16 µM, first compound 1 µM): 52.3% | viability, T/C (second compound 3.16 µM, first compound 3.16 µM): 13.3% | viability, T/C (second compound 3.16 µM, first compound 10 µM): 9.27% | viability, T/C (second compound 10 µM, first compound 0.0316 µM): 91.3% | viability, T/C (second compound 10 µM, first compound 0.1 µM): 94.1% | viability, T/C (second compound 10 µM, first compound 0.316 µM): 86.6% | viability, T/C (second compound 10 µM, first compound 1 µM): 34.3% | viability, T/C (second compound 10 µM, first compound 3.16 µM): 11.2% | viability, T/C (second compound 10 µM, first compound 10 µM): 6.83%

Reference: PubChem BioAssay AID1918936 (Molecular Pharmacology Branch, DTP, NCI, 2023)
